Tests used:
[1] = test system: Trypanosoma brucei brucei; assay: Trypanocidal activity against Trypanosoma brucei brucei 427 bloodstream form assessed as inhibition of parasite proliferation after 72 hr by Lilit Alamar Blue method; assay type: functional, organism-based
[2] = Selectivity index, ratio of LC50 for Artemia salina larvae to IC50 for Trypanosoma brucei brucei 427 bloodstream form
[3] = Toxicity against Artemia salina (brine shrimp) larvae assessed as mortality after 24 hr; assay type: organism-based; conditions: in vivo
[4] = Trypanosoma brucei, 427, 72 h, read-out: IC50

SMILES: C/C(=N/NC(=S)Nc1ccccc1)c1ccc2ccccc2c1
- IC50 [1]: ND(Insoluble)

SMILES: NC(=S)N/N=C\c1ccccc1Cl
- IC50 [1, 4]: 220 µM

SMILES: COc1ccc(/C(C)=N\NC(N)=S)cc1OC
- IC50 [1]: Not Active

SMILES: NC(=S)N/N=C\C=C\c1ccccc1
- IC50 [1, 4]: 76.3 µM

SMILES: C/C(=N/NC(N)=S)c1ccc2ccccc2c1 [ACETONAPHTHONE-THIOSEMICARBAZONE]
- IC50 [1, 4]: 9.62 µM
- Ratio LC50/IC50 [2]: 50
- LC50 at 24 h [3]: 481 µM

SMILES: C/C(=N/NC(N)=S)c1ccccc1Cl
- IC50 [1, 4]: 199 µM

SMILES: NC(=S)N/N=C\c1cccc(Cl)c1
- IC50 [1, 4]: 164 µM

SMILES: NC(=S)N/N=C\c1cccc(Br)c1
- IC50 [1, 4]: 136 µM

SMILES: NC(=S)N/N=C\CCc1ccccc1
- IC50 [1, 4]: 260 µM

SMILES: C/C(=N/NC(=S)Nc1ccccc1)c1ccc(Cl)cc1
- IC50 [1, 4]: 3.97 µM
- Ratio LC50/IC50 [2]: 110
- LC50 at 24 h [3]: 438 µM

SMILES: C/C(=N/NC(N)=S)c1ccc(Br)cc1
- IC50 [1, 4]: 26.9 µM

SMILES: NC(=S)NN=C(c1ccccc1)c1ccccc1 [BENZOPHENONE-THIOSEMICARBAZONE]
- IC50 [1, 4]: 68.3 µM

SMILES: C/C(=N/N=C(\N)S)C12CC3CC(CC(C3)C1)C2
- IC50 [1, 4]: 8.38 µM
- Ratio LC50/IC50 [2]: 14.2
- LC50 at 24 h [3]: 119 µM

SMILES: COc1cc(/C(C)=N\NC(N)=S)cc(OC)c1OC
- IC50 [1]: Not Active

SMILES: CN(C)c1ccc(/C=C/C=N\NC(N)=S)cc1
- IC50 [1, 4]: 17.7 µM

SMILES: NC(=S)N/N=C\c1ccccc1 [BENZALDEHYDE-THIOSEMICARBAZONE]
- IC50 [1, 4]: 444 µM

SMILES: C/C(=N/NC(N)=S)c1cccc(Br)c1
- IC50 [1, 4]: 70.4 µM

SMILES: CC/C(=N/NC(N)=S)c1ccc(OC)cc1
- IC50 [1, 4]: 132 µM

SMILES: NC(=S)N/N=C\c1ccc(Cl)cc1
- IC50 [1, 4]: 82.6 µM

SMILES: C/C(=N/NC(N)=S)c1ccccc1 [ACETOPHENONE-THIOSEMICARBAZONE]
- IC50 [1, 4]: 212 µM

SMILES: C=C(C)C1CC=C(C)/C(=N/NC(N)=S)C1 (stereo not drawn) [CARVONE-THIOSEMICARBAZONE]
- IC50 [1, 4]: 39.7 µM

SMILES: NC(=S)N/N=C\c1cc(Cl)ccc1O
- IC50 [1, 4]: 45.6 µM

SMILES: Cc1ccccc1/C=N\NC(N)=S
- IC50 [1, 4]: 222 µM

SMILES: NC(S)=NN=C(Cc1ccccc1)Cc1ccccc1
- IC50 [1, 4]: 147 µM

SMILES: C/C(=N/N=C(\N)S)c1ccc(Cl)cc1 [P-CHLOROPHENYL(METHYL)THIOSEMICARBAZONE]
- IC50 [1, 4]: 11.1 µM

SMILES: C/C(=N/NC(=S)Nc1ccccc1)c1ccc(Br)cc1
- IC50 [1, 4]: 5.19 µM
- Ratio LC50/IC50 [2]: 25.9
- LC50 at 24 h [3]: 134 µM

SMILES: NC(=S)N/N=C\c1ccccc1O
- IC50 [1, 4]: 170 µM

SMILES: COc1ccc(/C(C)=N\NC(N)=S)cc1
- IC50 [1, 4]: 91.1 µM

SMILES: Cc1ccc(/C=N\NC(N)=S)cc1
- IC50 [1, 4]: 124 µM

SMILES: COc1ccc(/C=N\NC(N)=S)cc1
- IC50 [1, 4]: 259 µM
